This assay has as its target T1, LG586 enzyme (Homo sapiens, UniProt Q9Y4D2).
T1 sequence (Q9Y4D2 1-1042): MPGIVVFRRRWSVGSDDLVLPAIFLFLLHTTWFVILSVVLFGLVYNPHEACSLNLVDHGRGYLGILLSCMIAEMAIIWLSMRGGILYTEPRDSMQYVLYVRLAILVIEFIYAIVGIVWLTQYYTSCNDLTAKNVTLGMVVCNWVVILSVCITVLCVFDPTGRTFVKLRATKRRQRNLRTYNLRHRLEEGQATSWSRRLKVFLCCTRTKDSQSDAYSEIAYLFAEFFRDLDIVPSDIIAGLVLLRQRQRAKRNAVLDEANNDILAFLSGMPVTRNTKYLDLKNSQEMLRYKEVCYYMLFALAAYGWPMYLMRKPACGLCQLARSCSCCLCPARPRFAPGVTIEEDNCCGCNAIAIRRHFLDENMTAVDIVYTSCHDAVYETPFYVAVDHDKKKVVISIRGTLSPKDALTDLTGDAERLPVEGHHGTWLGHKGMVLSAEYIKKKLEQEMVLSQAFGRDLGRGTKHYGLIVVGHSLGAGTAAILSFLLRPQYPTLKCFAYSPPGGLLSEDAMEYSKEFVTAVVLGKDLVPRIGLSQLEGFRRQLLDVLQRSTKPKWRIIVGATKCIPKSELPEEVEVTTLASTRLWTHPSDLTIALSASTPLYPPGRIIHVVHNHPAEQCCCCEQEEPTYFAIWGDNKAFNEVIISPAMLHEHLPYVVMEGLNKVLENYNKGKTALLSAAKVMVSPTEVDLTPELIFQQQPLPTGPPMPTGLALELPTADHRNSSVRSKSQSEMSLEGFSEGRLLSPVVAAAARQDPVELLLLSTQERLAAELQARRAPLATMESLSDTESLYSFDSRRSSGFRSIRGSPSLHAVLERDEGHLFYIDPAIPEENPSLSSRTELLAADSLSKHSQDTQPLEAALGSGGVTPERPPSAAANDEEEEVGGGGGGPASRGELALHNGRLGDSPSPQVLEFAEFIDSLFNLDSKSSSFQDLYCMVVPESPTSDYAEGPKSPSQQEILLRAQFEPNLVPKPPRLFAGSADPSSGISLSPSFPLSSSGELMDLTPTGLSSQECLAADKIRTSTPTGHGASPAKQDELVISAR
It counts as biochemical. As to conditions: LG586 membrane prep, 250 μM PNP substrate, 10 min preincubation.

Where two headings read alike, the source gives them in different places.

Experimental: Black non-binding surface Corning plates (3655) were spotted with 0.9 μL of compound in twenty point 1:3 dilutions. The same volume of dimethyl sulfoxide (DMSO) was added to column 23 of the plate.
A membrane prep from a stable HEK cell line expressing LG586 was prepared by the Cell Resource Group at BMS in Hopewell, N.J. The protein concentration of the membrane prep was 1.28 μg/μL. […] For the assay, membrane was thawed to room temperature and then added to the assay buffer, 100 mM HEPES in MQ water at pH 7.5. The concentration of the LG586 enzyme in the assay is 0.005 μg/mL.
The substrate used in this assay was purchased from Sigma (N9876) p-nitrophenyl butyrate (PNP). The substrate is received in the liquid form and must be diluted with DMSO. […] The final concentration of the substrate is 250 μM.
Enzyme was added to the plates 80 μL/well using a Multi-drop Combi (Thermo). The plates were incubated with the compound for 10 minutes at room temperature. Then 9 μL of substrate was added to each well and the plates were immediately read on the Viewlux Imager (Perkin Elmer) in absorbance mode with the excitation filter of 405 nm and emission filter of 564/250 nm. The read was kinetic, plates were read once every 30 seconds for 5 minutes and then slopes were calculated for each well and the data was reduced with in-house software.

Consider “2-(2,2-dimethyl-N-(4-(naphthalen-1-yl)benzyl)chroman-6-sulfonamido)acetic acid [Example 23]”, for which the IC50 was 2 to 100 nM (read-out: Data Range*) and 3 nM (read-out: LE_LG586PNP_DR (IC50)).
